# Results from patent US20140155406A1, “4-IMIDAZOPYRIDAZIN-1-YL-BENZAMIDES AND 4-IMIDAZOTRIAZIN-1-YL-BENZAMIDES BTK INHIBITORS” (priority 2011, published 2014).
# Assays:
# Type in all cases: biochemical
# Lyn enzyme = target: T1, Lyn enzyme (Homo sapiens, UniProt P07948); assay: Lyn enzyme activity, IMAP fluorescence polarization assay; details: 60 min pre-incubation, 2 μM ATP (Km)
# T1 construct: purchased Millipore 14-510
# Method: Lyn enzyme activity is measured using the IMAP (immobilized metal ion affinity-based fluorescence polarization) assay as outlined below.
# Lyn enzyme (Millipore catalog#14-510), is diluted to 250 mU/mL in KR buffer (10 mM Tris-HCl, 10 mM MgCl2, 0.01% Tween-20, 0.05% NaN3, 1 mM DTT, 2 mM MnCl2, pH 7.2). Serial dilution log 10 from 2 mM to 63.2 nM of test compounds are made in 100% DMSO. The dilutions in DMSO are then diluted 50-fold in KR-buffer of which 5 μl is used in the assay, leading to a final compound concentration range in the assay from 10 μM to 0.316 nM. 5 μL/well of test compound in KR buffer (final DMSO concentration in the assay is 1%) is mixed with 5 μl/well of 250 mU/mL Lyn enzyme (final concentration in the assay is 62.5 mU/mL). Test compounds and Lyn enzyme are pre-incubated 60 minutes at room temperature, before adding 5 μL/well of 400 nM Fluorescin labeled substrate peptide (Blk/Lyntide substrate, e.g. #R7188/#R7233, Molecular Devices) in KR-buffer. Final peptide substrate concentration in assay is 100 nM. The kinase assay is started by adding 5 μL/well of 8 μM ATP in KR-buffer (final ATP concentration is 2 μM ATP, Km ATP in Lyn IMAP assay). Following incubation for 2 h at room temperature the enzyme reaction is stopped by adding 40 μL/well IMAP Progressive Binding Solution (according to suppliers (Molecular Devices) protocol using 75% 1× buffer A and 25% 1× buffer B with 1:600 Progressive Binding Solution). After 60 min incubation at room temperature in the dark the FP signal is read. Fluorescence at 535 nm is measured using parallel and perpendicular filters to determine differences in rotation due to binding of the phosphorylated substrate peptide to the beads. Values are calculated as percentage of the difference in readout (ΔmPi) of the controls with and without ATP. EC50 values are determined by curve fitting of the experimental results using Activity Base.
# Src enzyme = target: T2, Src enzyme (Homo sapiens, UniProt P12931); assay: Src enzyme activity, IMAP fluorescence polarization assay; details: 60 min pre-incubation, 4 μM ATP (Km)
# T2 construct: purchased Millipore 14-326
# T2 sequence (P12931 whole entry): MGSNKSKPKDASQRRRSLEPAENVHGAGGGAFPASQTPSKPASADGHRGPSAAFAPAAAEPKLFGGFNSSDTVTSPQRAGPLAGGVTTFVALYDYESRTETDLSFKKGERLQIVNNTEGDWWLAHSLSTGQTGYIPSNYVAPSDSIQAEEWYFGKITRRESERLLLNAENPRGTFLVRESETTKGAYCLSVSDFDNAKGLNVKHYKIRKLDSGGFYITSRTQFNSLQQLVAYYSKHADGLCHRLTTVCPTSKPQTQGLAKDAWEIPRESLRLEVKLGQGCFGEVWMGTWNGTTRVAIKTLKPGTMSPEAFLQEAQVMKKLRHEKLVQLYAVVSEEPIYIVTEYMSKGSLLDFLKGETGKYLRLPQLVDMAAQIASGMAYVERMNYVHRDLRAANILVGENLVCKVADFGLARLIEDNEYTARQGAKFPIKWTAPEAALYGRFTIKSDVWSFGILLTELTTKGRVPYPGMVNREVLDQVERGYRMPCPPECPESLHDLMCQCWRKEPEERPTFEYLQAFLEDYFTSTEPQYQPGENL
# Method: Src enzyme activity is measured using the IMAP (immobilized metal ion affinity-based fluorescence polarization) assay as outlined below.
# Src enzyme (Millipore catalog#14-326), is diluted to 0.8 U/mL in KR buffer (10 mM Tris-HCl, 10 mM MgCl2, 0.01% Tween-20, 0.05% NaN3, 1 mM DTT, 2 mM MnCl2, pH 7.2).
# Serial dilution log 10 from 2 mM to 63.2 nM of test compounds are made in 100% DMSO. The dilutions in DMSO are then diluted 50-fold in KR-buffer of which 5 μl is used in the assay, leading to a final compound concentration range in the assay from 10 μM to 0.316 nM. 5 μL/well of test compound in KR buffer (final DMSO concentration in the assay is 1%) is mixed with 5 μl/well of 0.8 U/mL Src enzyme (final concentration in the assay is 0.2 U/mL). Test compounds and Src enzyme are pre-incubated 60 minutes at room temperature, before adding 5 μL/well of 400 nM Fluorescin labeled substrate peptide (p34cdc2 substrate peptide, e.g. #R7157/#R7172, Molecular Devices) in KR-buffer. Final peptide substrate concentration in assay is 100 nM. The kinase assay is started by adding 5 μL/well of 16 μM ATP in KR-buffer (final ATP concentration is 4 μM ATP, Km ATP in Src IMAP assay). Following incubation for 2 h at room temperature the enzyme reaction is stopped by adding 40 μL/well IMAP Progressive Binding Solution (according to suppliers (Molecular Devices) protocol using 75% 1× buffer A and 25% 1× buffer B with 1:600 Progressive Binding Solution). After 60 min incubation at room temperature in the dark the FP signal is read. Fluorescence at 535 nm is measured using parallel and perpendicular filters to determine differences in rotation due to binding of the phosphorylated substrate peptide to the beads. Values are calculated as percentage of the difference in readout (ΔmPi) of the controls with and without ATP. EC50 values are determined by curve fitting of the experimental results using Activity Base.
# FynT enzyme = target: T3, FynT enzyme (Homo sapiens, UniProt P06241); assay: FynT enzyme activity, IMAP fluorescence polarization assay; details: 60 min pre-incubation, 0.2 μM ATP (Km)
# T3 construct: purchased Biomol SE-287
# T3 sequence (P06241 1-534 isoform P06241-2): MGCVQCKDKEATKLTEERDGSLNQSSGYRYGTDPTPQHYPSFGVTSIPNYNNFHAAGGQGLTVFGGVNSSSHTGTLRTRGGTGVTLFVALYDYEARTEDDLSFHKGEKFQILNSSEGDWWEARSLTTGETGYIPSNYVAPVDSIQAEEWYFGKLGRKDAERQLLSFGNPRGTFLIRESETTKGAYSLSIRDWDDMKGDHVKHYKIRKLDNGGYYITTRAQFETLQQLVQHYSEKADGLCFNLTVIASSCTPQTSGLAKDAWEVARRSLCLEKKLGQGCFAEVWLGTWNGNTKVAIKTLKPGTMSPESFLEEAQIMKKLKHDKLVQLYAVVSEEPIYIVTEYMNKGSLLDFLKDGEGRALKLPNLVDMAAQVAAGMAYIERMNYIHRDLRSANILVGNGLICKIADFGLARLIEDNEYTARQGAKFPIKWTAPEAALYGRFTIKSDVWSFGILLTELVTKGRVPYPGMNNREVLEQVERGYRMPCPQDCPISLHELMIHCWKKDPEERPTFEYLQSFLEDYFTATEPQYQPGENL
# Method: FynT enzyme activity is measured using the IMAP (immobilized metal ion affinity-based fluorescence polarization) assay as outlined below.
# FynT enzyme (Biomol catalog# SE-287), is diluted to 0.5 μg/mL in KR buffer (10 mM Tris-HCl, 10 mM MgCl2, 0.01% Tween-20, 0.05% NaN3, 1 mM DTT, 2 mM MnCl2, pH 7.2). Serial dilution log 10 from 2 mM to 63.2 nM of test compounds are made in 100% DMSO. The dilutions in DMSO are then diluted 50-fold in KR-buffer of which 5 μl is used in the assay, leading to a final compound concentration range in the assay from 10 μM to 0.316 nM. 5 μL/well of test compound in KR buffer (final DMSO concentration in the assay is 1%) is mixed with 5 μl/well of 0.5 μg/mL FynT enzyme (final concentration in the assay is 125 ng/mL). Test compounds and FynT enzyme are pre-incubated 60 minutes at room temperature, before adding 5 μL/well of 400 nM Fluorescin labeled substrate peptide (p34cdc2 substrate peptide, e.g. #R7157/#R7172, Molecular Devices) in KR-buffer. Final peptide substrate concentration in assay is 100 nM. The kinase assay is started by adding 5 μL/well of 0.8 μM ATP in KR-buffer (final ATP concentration is 0.2 μM ATP, Km ATP in FynT IMAP assay). Following incubation for 2 h at room temperature the enzyme reaction is stopped by adding 40 μL/well IMAP Progressive Binding Solution (according to suppliers (Molecular Devices) protocol using 75% 1× buffer A and 25% 1× buffer B with 1:600 Progressive Binding Solution). After 60 min incubation at room temperature in the dark the FP signal is read. Fluorescence at 535 nm is measured using parallel and perpendicular filters to determine differences in rotation due to binding of the phosphorylated substrate peptide to the beads. Values are calculated as percentage of the difference in readout (ΔmPi) of the controls with and without ATP. EC50 values are determined by curve fitting of the experimental results using Activity Base.
# Lck enzyme = target: T4, Lck enzyme (Homo sapiens, UniProt P06239); assay: Lck enzyme activity, IMAP fluorescence polarization assay; details: 60 min pre-incubation, 6 μM ATP (Km)
# T4 construct: purchased Millipore 14-442
# T4 sequence (P06239 whole entry): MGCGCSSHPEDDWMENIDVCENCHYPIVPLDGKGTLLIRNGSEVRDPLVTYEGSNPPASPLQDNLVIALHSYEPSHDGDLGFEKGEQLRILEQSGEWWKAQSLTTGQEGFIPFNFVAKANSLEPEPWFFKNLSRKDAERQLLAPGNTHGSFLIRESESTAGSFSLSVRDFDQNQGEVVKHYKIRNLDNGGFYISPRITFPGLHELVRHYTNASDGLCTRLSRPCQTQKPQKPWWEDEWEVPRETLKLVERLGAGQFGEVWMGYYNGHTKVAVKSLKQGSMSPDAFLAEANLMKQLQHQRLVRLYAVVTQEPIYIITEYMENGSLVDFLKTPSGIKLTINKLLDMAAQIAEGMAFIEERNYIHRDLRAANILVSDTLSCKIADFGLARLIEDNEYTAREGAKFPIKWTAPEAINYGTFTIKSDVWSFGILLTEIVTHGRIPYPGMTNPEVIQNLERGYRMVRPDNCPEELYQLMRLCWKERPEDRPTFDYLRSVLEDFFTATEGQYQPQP
# Method: Lck enzyme activity is measured using the IMAP (immobilized metal ion affinity-based fluorescence polarization) assay as outlined below.
# Lck enzyme (Millipore catalog#14-442), is diluted to 0.4 U/mL in KR buffer (10 mM Tris-HCl, 10 mM MgCl2, 0.01% Tween-20, 0.05% NaN3, 1 mM DTT, 2 mM MnCl2, pH 7.2). Serial dilution log 10 from 2 mM to 63.2 nM of test compounds are made in 100% DMSO. The dilutions in DMSO are then diluted 50-fold in KR-buffer of which 5 μl is used in the assay, leading to a final compound concentration range in the assay from 10 μM to 0.316 nM. 5 μL/well of test compound in KR buffer (final DMSO concentration in the assay is 1%) is mixed with 5 μl/well of 0.4 U/mL Lck enzyme (final concentration in the assay is 0.1 U/mL). Test compounds and Lck enzyme are pre-incubated 60 minutes at room temperature, before adding 5 μL/well of 400 nM Fluorescin labeled substrate peptide (p34cdc2 substrate peptide, e.g. #R7157/#R7172, Molecular Devices) in KR-buffer. Final peptide substrate concentration in assay is 100 nM. The kinase assay is started by adding 5 μL/well of 24 μM ATP in KR-buffer (final ATP concentration is 6 μM ATP, Km ATP in Lck IMAP assay). Following incubation for 2 h at room temperature the enzyme reaction is stopped by adding 40 μL/well IMAP Progressive Binding Solution (according to suppliers (Molecular Devices) protocol using 75% 1× buffer A and 25% 1× buffer B with 1:600 Progressive Binding Solution). After 60 min incubation at room temperature in the dark the FP signal is read. Fluorescence at 535 nm is measured using parallel and perpendicular filters to determine differences in rotation due to binding of the phosphorylated substrate peptide to the beads. Values are calculated as percentage of the difference in readout (ΔmPi) of the controls with and without ATP. EC50 values are determined by curve fitting of the experimental results using Activity Base.
# T1 sequence (P07948 whole entry): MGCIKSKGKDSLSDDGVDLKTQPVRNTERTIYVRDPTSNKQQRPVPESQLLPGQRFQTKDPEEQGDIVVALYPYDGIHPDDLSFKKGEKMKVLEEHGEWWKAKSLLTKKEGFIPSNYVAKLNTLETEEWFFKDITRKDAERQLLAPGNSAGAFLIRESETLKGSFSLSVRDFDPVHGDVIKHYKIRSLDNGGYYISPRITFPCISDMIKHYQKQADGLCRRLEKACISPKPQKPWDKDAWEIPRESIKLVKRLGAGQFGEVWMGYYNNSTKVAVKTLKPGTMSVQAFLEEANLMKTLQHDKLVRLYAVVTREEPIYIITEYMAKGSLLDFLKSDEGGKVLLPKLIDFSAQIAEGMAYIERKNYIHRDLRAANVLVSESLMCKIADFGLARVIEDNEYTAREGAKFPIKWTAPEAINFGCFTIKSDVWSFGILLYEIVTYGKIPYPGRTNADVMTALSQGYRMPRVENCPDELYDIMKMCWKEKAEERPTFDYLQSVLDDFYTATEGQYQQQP
Structure (SMILES),EC50 (Lyn enzyme),EC50 (Src enzyme),EC50 (FynT enzyme),EC50 (Lck enzyme)
"C=CC(=O)N1CCC[C@H]1c1nc(-c2ccc(C(=O)Nc3cc(CC)ccn3)cc2)c2c(C)nccn12 [Example 14, (S)-4-(3-(1-Acryloylpyrrolidin-2-yl)-8-methylimidazo[1,5-a]pyrazin-1-yl)-N-(4-ethylpyridin-2-yl)benzamide]",≥ 1 µM,≥ 1 µM,≥ 1 µM,≥ 1 µM
"CC#CC(=O)N1CCC[C@H]1c1nc(-c2ccc(C(=O)Nc3cc(OC)ccn3)cc2)c2c(C)nccn12 [Example 16, (S)-4-(3-(1-but-2-ynoylpyrrolidin-2-yl)-8-methylimidazo[1,5-a]pyrazin-1-yl)-N-(4-methoxypyridin-2-yl)benzamide]",≥ 1 µM,≥ 1 µM,≥ 1 µM,≥ 1 µM
"Cc1nccn2c([C@@H]3CCCCN3C(=O)c3ccnc(Cl)n3)nc(-c3ccc(C(=O)Nc4cc(C(F)(F)F)ccn4)cc3)c12 [Example 17, (S)-4-(3-(1-(2-chloropyrimidine-4-carbonyl)piperidin-2-yl)-8-methylimidazo[1,5-a]pyrazin-1-yl)-N-(4-(trifluoromethyl)pyridin-2-yl)benzamide]",≥ 1 µM,≥ 1 µM,≥ 1 µM,≥ 1 µM
"CC#CC(=O)N1CCC[C@H]1c1nc(-c2ccc(C(=O)Nc3cc(CC)ccn3)cc2)c2c(C)nccn12 [Example 20, (S)-4-(3-(1-but-2-ynoylpyrrolidin-2-yl)-8-methylimidazo[1,5-a]pyrazin-1-yl)-N-(4-ethylpyridin-2-yl)benzamide]",≥ 1 µM,≥ 1 µM,≥ 1 µM,≥ 1 µM
"CC#CC(=O)N1CCC[C@H]1c1nc(-c2ccc(C(=O)Nc3cc(C(F)(F)F)ccn3)cc2)c2c(C)nccn12 [Example 26, (S)-4-(3-(1-but-2-ynoylpyrrolidin-2-yl)-8-methylimidazo[1,5-a]pyrazin-1-yl)-N-(4-(trifluoromethyl)pyridin-2-yl)benzamide]",≥ 1 µM,≥ 1 µM,≥ 1 µM,≥ 1 µM
"COC/C=C/C(=O)N1CCCC[C@H]1c1nc(-c2ccc(C(=O)Nc3cc(C(F)(F)F)ccn3)cc2)c2c(C)nccn12 [Example 30, (S,E)-4-(3-(1-(4-methoxybut-2-enoyl)piperidin-2-yl)-8-methylimidazo[1,5-a]pyrazin-1-yl)-N-(4-(trifluoromethyl)pyridin-2-yl)benzamide]",≥ 1 µM,≥ 1 µM,≥ 1 µM,≥ 1 µM

# The remaining lines, values ahead:
EC50 (Lyn enzyme),EC50 (Src enzyme),EC50 (FynT enzyme),EC50 (Lck enzyme),Structure (SMILES)
≥ 1 µM,≥ 1 µM,≥ 1 µM,≥ 1 µM,"CC#CC(=O)N1CCC[C@H]1c1nc(-c2ccc(C(=O)Nc3ccccn3)cc2)c2c(C)nccn12 [Example 1, (S)-4-(3-(1-But-2-ynoylpyrrolidin-2-yl)-8-methylimidazo[1,5-a]pyrazin-1-yl)-N-(pyridin-2-yl)benzamide]"
≥ 1 µM,≥ 1 µM,≥ 1 µM,≥ 1 µM,"CCCc1ccnc(NC(=O)c2ccc(-c3nc([C@@H]4CCCCN4C(=O)c4ccnc(Cl)n4)n4ccnc(C)c34)cc2)c1 [Example 5, (S)-4-(3-(1-(2-chloropyrimidine-4-carbonyl)piperidin-2-yl)-8-methylimidazo[1,5-a]pyrazin-1-yl)-N-(4-propylpyridin-2-yl)benzamide]"
≥ 1 µM,≥ 1 µM,≥ 1 µM,≥ 1 µM,"C=CC(=O)N1CCC[C@H]1c1nc(-c2ccc(C(=O)Nc3cc(C)ccn3)cc2)c2c(C)nccn12 [Example 11, (S)-4-(3-(1-Acryloylpyrrolidin-2-yl)-8-methylimidazo[1,5-a]pyrazin-1-yl)-N-(4-methylpyridin-2-yl)benzamide]"
≥ 1 µM,≥ 1 µM,≥ 1 µM,≥ 1 µM,"C=CC(=O)N1CCC[C@H]1c1nc(-c2ccc(C(=O)Nc3cc(OC)ccn3)cc2)c2c(C)nccn12 [Example 12, (S)-4-(3-(1-acryloylpyrrolidin-2-yl)-8-methylimidazo[1,5-a]pyrazin-1-yl)-N-(4-methoxypyridin-2-yl)benzamide]"
